Reference: article PMC9241943, “LcCCL28-25, Derived from Piscine Chemokine, Exhibits Antimicrobial Activity against Gram-Negative and Gram-Positive Bacteria In Vitro and In Vivo” (Microbiology Spectrum, 2022)
Converted amounts (≈) assume the structure as drawn. Residues, ends and D or L forms follow the SMILES beside them.

What was measured:
[1] = test system: Methicillin-resistant S. aureus USA300; format: cell-based, Staphylococcus aureus; details: USA300, 2 h
Description: (§1) The MIC assays were performed as previously described ([43]). Briefly, peptides were plated in a 2-fold dilution series (50 μL/well) of Mueller-Hinton broth (MHB) in Costar 96-well cell culture plates (Corning, NY, USA). Three repeats were set for each concentration. E. coli ATCC 25922, A. hydrophila ATCC 7966, P. aeruginosa PAO1, P. aeruginosa FRD1, S. aureus ATCC 25923, S. agalactiae ATCC 13813, S. pneumoniae ATCC 49619, methicillin-resistant S. aureus ATCC 43300, and methicillin-resistant S. aureus USA300 were cultured in Luria-Bertani (LB) medium, while K. pneumoniae CMCC46117 was cultured in tryptic soy broth (TSB) medium. Incubation was done at 37°C and 150 × g for 12 h. Bacteria were transferred to fresh MHB at a ratio of 1% (vol/vol) and incubated to reach a logarithmic growth phase. Then, 50 μL of a bacterial suspension at 4 × 10^6 CFU/mL was added to each well. […]

[2] = test system: Methicillin-resistant S. aureus ATCC 43300; format: cell-based, Staphylococcus aureus; details: ATCC 43300, 2 h
Description: as §1

P. aeruginosa FRD1 = format: cell-based, Pseudomonas aeruginosa; details: FRD1, 2 h
Description: as §1

[3] = test system: Escherichia coli ATCC 25922; format: cell-based; details: ATCC 25922, 2 h
Description: as §1

[4] = test system: Aeromonas hydrophila ATCC 7966; format: cell-based; details: ATCC 7966, 2 h
Description: as §1

[5] = test system: Streptococcus agalactiae ATCC 13813; format: cell-based; details: ATCC 13813, 2 h
Description: as §1

[6] = test system: Staphylococcus aureus ATCC 25923; format: cell-based; details: ATCC 25923, 2 h
Description: as §1

[7] = test system: Pseudomonas aeruginosa PAO1; format: cell-based; details: PAO1, 2 h
Description: as §1

[8] = test system: Klebsiella pneumoniae CMCC46117; format: cell-based; details: CMCC46117, 2 h
Description: as §1

[9] = test system: Streptococcus pneumoniae ATCC 49619; format: cell-based; details: ATCC 49619, 2 h
Description: as §1

E. coli ATCC 25922 = assay: SYTOX green membrane permeability assay; format: cell-based, Escherichia coli; details: E. coli ATCC 25922, 5 μM SYTOX green, read every 1 min
Description: The SYTOX green staining assay was performed to assess peptide-associated membrane damage ([47], [52]). E. coli ATCC 25922 and S. aureus ATCC 25923 cells in the mid-logarithmic phase were collected, washed thrice, and resuspended (5 × 10^7 CFU/mL) in buffer B (10 mM Tris-HCl, pH 7.4, at 25°C). The bacterial suspensions were mixed with 5 μM SYTOX green and incubated for 15 min at room temperature in the dark. Then, the mixtures were added to black, clear-bottom 96-well plates at a density of 100 μL/well. After peptide addition, SYTOX green uptake was monitored using an EnSpire multimode plate reader (PerkinElmer, Singapore) with an excitation wavelength of 485 nm and an emission wavelength of 520 nm. Each measurement interval was 1 min, totaling 30 to 60 times. Melittin was used as the positive control, while bovine serum albumin (BSA) was the negative control.

| Compound | MIC [1] | MIC [2] | MIC (P. aeruginosa FRD1) | MIC [3] | MIC [4] | MIC [5] | MIC [6] | MIC [7] | MIC [8] | MIC [9] | SYTOX green fluorescence intensity (E. coli ATCC 25922) |
| --- | --- | --- | --- | --- | --- | --- | --- | --- | --- | --- | --- |
| CC[C@H](C)[C@H](NC(=O)[C@H](CCCCN)NC(=O)[C@H](CCSC)NC(=O)[C@H](C)NC(=O)[C@H](CC(C)C)NC(=O)[C@H](Cc1c[nH]cn1)NC(=O)[C@H](CCCNC(=N)N)NC(=O)[C@H](CCCCN)NC(=O)[C@H](CCCCN)NC(=O)[C@H](CCCCN)NC(=O)[C@H](CCSC)NC(=O)[C@H](CC(C)C)NC(=O)[C@H](CC(C)C)NC(=O)[C@H](CC(=O)O)NC(=O)[C@H](CC(C)C)NC(=O)[C@H](Cc1c[nH]cn1)NC(=O)[C@H](CCCCN)NC(=O)[C@H](CCCCN)NC(=O)[C@@H](NC(=O)[C@H](CCCNC(=N)N)NC(=O)[C@@H]1CCCN1C(=O)[C@H](Cc1c[nH]cn1)NC(=O)[C@H](C)N)[C@@H](C)CC)C(=O)N[C@@H](C)C(=O)N[C@@H](C)C(=O)N1CCC[C@H]1C(=O)O [chCCL27a-26] (H-AHPRIKKHLDLLMKKKRHLAMKIAAP-OH; N-terminus and C-terminus assumed) | 25.00 µg/mL (≈ 8.21 µM) | 25.00 µg/mL (≈ 8.21 µM) | 25.00 µg/mL (≈ 8.21 µM) | 25.00 µg/mL (≈ 8.21 µM) | >50.00 µg/mL | 25.00 µg/mL (≈ 8.21 µM) | 12.50 µg/mL (≈ 4.1 µM) | 25.00 µg/mL (≈ 8.21 µM) | >50.00 µg/mL | 25.00 µg/mL (≈ 8.21 µM) | fluorescence trends similar to the trends in E. coli cells treated with lcCCL28-25 |
| CSCC[C@H](NC(=O)[C@H](CCCNC(=N)N)NC(=O)[C@H](CCCCN)NC(=O)[C@H](CCSC)NC(=O)[C@H](CC(C)C)NC(=O)[C@H](CCCCN)NC(=O)[C@H](CCC(N)=O)NC(=O)[C@H](CC(C)C)NC(=O)[C@H](Cc1ccccc1)NC(=O)[C@H](CCC(N)=O)NC(=O)[C@H](CCC(=O)O)NC(=O)[C@H](CCSC)NC(=O)[C@H](CCCCN)NC(=O)[C@@H]1CCCN1C(=O)[C@@H](NC(=O)[C@H](C)N)[C@@H](C)O)C(=O)N[C@@H](C)C(=O)N[C@@H](CCCNC(=N)N)C(=O)N[C@@H](CC(C)C)C(=O)N[C@@H](CCCCN)C(=O)N[C@@H](C)C(=O)N[C@@H](CO)C(=O)N[C@@H](C)C(=O)N[C@H](C(=O)O)C(C)C [drCCL27b-24] (H-ATPKMEQFLQKLMKRMARLKASAV-OH; N-terminus and C-terminus assumed) | 25.00 µg/mL (≈ 9 µM) | 25.00 µg/mL (≈ 9 µM) | 25.00 µg/mL (≈ 9 µM) | 25.00 µg/mL (≈ 9 µM) | >50.00 µg/mL | 25.00 µg/mL (≈ 9 µM) | 25.00 µg/mL (≈ 9 µM) | 25.00 µg/mL (≈ 9 µM) | >50.00 µg/mL | 25.00 µg/mL (≈ 9 µM) | fluorescence trends similar to the trends in E. coli cells treated with lcCCL28-25 |
